Tested on: Plasmodium falciparum
Assay: GSK_TCMDC: Inhibition of Plasmodium falciparum 3D7 in whole erythrocytes, using parasite LDH activity as an index of growth.
Type: functional, organism-based
Details: Plasmodium falciparum, 3D7

SMILES	XC50
CNc1nc(N/N=C/c2cc([N+](=O)[O-])c(Cl)cc2Cl)nc(Nc2cccc(C(F)(F)F)c2)n1	729 nM
CCC(C)NC(=O)Nc1cccc(-c2cccc(-c3nc4cccc(C)c4[nH]3)c2)c1 (configuration not stated)	809 nM
Cn1cc(C(=O)Nc2cccc(-c3cccc(-c4nc5ccccc5[nH]4)c3)c2)n(C)c1=O	715 nM
Cc1cccc(-c2nn(-c3ccccc3)cc2C(=O)Nc2nnc(C)o2)c1	1160 nM
CCCc1ccc(C(=O)N2C(c3nccs3)C(C(N)=O)CC2(CC(C)C)C(=O)O)cc1 (configuration not stated)	156 nM
Cc1nn(CC(C)C)c2sc(C(=O)Nc3nc(-c4ccccn4)cs3)cc12	961 nM
C[C@H](Cc1ccc(CCc2ccc(C[C@@H](C)NC[C@H](O)c3cccc(Cl)c3)cc2)cc1)NC[C@H](O)c1cccc(Cl)c1	935 nM
CN(C)CC(=O)Nc1ccc(Nc2nccc(NCC(O)c3ccccc3)n2)cc1 (configuration not stated)	973 nM
CN(C)c1ccc(OCCCCCCOc2ccccc2)cc1	496 nM
Cc1cc(OCCCNC(=N)c2ccc3ccccc3c2)c(C(C)C)cc1Cl	973 nM
COc1ccc2c(c1C1CCN(CCCCNC(=O)c3ccc(-c4ccc(Cl)cn4)cc3)CC1)CCCC2	1020 nM
CN1CCN(Cc2ccc(-c3ccc4c(Nc5ccc(Oc6ccccn6)cc5)ccnc4c3)o2)CC1	145 nM
CN1CCN(c2ccnc3ccc(NC(=O)Cc4ccc(Br)c5ccccc45)cc23)CC1	807 nM
COc1cccc(-c2cnc(-c3ccncc3)nc2C2CCN(Cc3ccc(NC(C)=O)cc3)CC2)c1	1500 nM
CC(=O)c1ccc(-n2ccnc2)cc1	852 nM
O=c1cc(NCCCNCc2sc(Br)c(Br)c2Br)[nH]c2ccccc12	1010 nM
CC(=O)Nc1ccc(C(=O)Nc2cccc(-c3ccc(-c4nc5ccccc5[nH]4)s3)c2)cn1	180 nM
Cc1noc(C)c1-c1ccc2c(Nc3ccccc3C(C)(C)C)c(C(=O)NCc3ccc(OC(C)C)cc3)cnc2c1	908 nM
COc1cc2ncnc(Nc3ccc(OCc4ccccc4Br)c(Cl)c3)c2cc1OC	1280 nM
O=C(Nc1ccc(-c2nc3ccccc3[nH]2)cc1)C1CCN(Cc2cccc(F)c2F)CC1	1100 nM
CC(Cc1ccc(NC(=O)COc2ccc(CC(C)NCCc3cccc(Cl)c3)cc2)cc1)NCCc1cccc(Cl)c1 (configuration not stated)	84.3 nM
CCC1(CC)NC(N)=NC(=N)N1OCc1ccc(Cl)c(Cl)c1	58.5 nM
O=C(C=Cc1ccc(-c2ccccc2)cc1)N1CCC(CCN2CCC(c3c[nH]c4ccccc34)CC2)CC1	1120 nM
CCCCCC(C)(C)NC[C@@H](O)[C@H](Cc1ccccc1)NC(=O)c1cc(NCC)cc(N2CCCC2=O)c1	674 nM
Cc1cc(NCCCCCCN)nc(Nc2ccc(Cl)cc2)n1	448 nM

SMILES	XC50
Cn1cncc1C(=O)Nc1cccc(-c2cccc(-c3nc4ccccc4[nH]3)c2)c1	635 nM
N#Cc1ccc(CN2CCCN(c3ccc(NC(=O)c4ccc(F)cc4)cc3)CC2)cc1	1280 nM
CCCC(C)Nc1nc(C)cc(N[C@@H](CC(C)C)C(=O)Nc2ccc(OC)cc2)n1 (some centres not stated)	866 nM
N#Cc1ccc(C=CC(=O)NC2CCC(CCN3CCc4ccc(-c5cnccn5)cc4CC3)CC2)cc1 (configuration not stated)	613 nM
COc1ccc(S(=O)(=O)NC2CCN(CCCOc3ccnc4cc(Cl)ccc34)C2)cc1OC (configuration not stated)	1050 nM
CN1CCN(c2ccnc3ccc(NC(=O)Nc4ccc5ccccc5c4)cc23)CC1	76.6 nM
O=C(Nc1ccccc1)N(Cc1cccc(-c2cccc(CNCCc3ccccc3)c2)c1)C1CCN(Cc2ccccc2)CC1	307 nM
CN1CCN(Cc2ccc(-c3ccc4c(Nc5ccc(Oc6ccccc6)cc5)ccnc4c3)o2)CC1	177 nM
Nn1c(=O)oc2ccc(Cl)cc2c1=O	187 nM
O=C(/C=C/c1ccc(Cl)c(Cl)c1)NC1CCC(CN2CCC(c3nc4cc(O)ccc4[nH]3)CC2)CC1 (configuration not stated)	241 nM
Cc1ncsc1CCN1C(=O)CC2(C1=O)C(=O)N(Cc1ccccc1)c1ccc(Cl)cc12 (configuration not stated)	984 nM
Cc1cccc2[nH]c(-c3cc(-c4cccc(Cl)c4)cnc3N)nc12	124 nM
c1ccc2c(c1)CN(Cc1ccsc1)CC1(CCN(Cc3c[nH]c4cnccc34)CC1)O2	1150 nM
c1cc(CN2CCN(c3ccncc3)CC2)cc(-c2ccc(-c3nc4ccccc4[nH]3)s2)c1	148 nM
CCNc1cc(C(=O)NC(Cc2ccccc2)C(O)CNC2CCSCC2)cc(N2CCCC2=O)c1 (configuration not stated)	133 nM
CCCCCCN1CCN(Cc2cccc(NC(=O)c3cc4ccccc4o3)c2)CC1	909 nM
COc1cc(Nc2nccc(N3CCC(NC(=O)c4cccc(C#N)c4)C3)n2)cc(OC)c1OC (configuration not stated)	992 nM
CN1CCCN(Cc2ccc(-c3ccc(NS(=O)(=O)c4cccc5cccnc45)cc3)cc2)CC1	694 nM
CCOC(=O)c1c[nH]c2c(sc3cc(OC)ccc32)c1=O	387 nM
CCN(CC)CCCN1CCN(C(=O)c2cccc(-c3noc(C(F)(F)F)n3)c2)CC1	154 nM
CC(C)CNCc1ccc(-c2ccccc2CN(C(=O)NCCc2ccccc2)C2CCN(Cc3ccccc3)CC2)cc1	878 nM
O=c1cc(NCCCNCc2ccc(Cl)c(Cl)c2)[nH]c2ccc(Cl)cc12	344 nM
c1cc(CN2CCN(CCN3CCOCC3)CC2)cc(-c2cccc(-c3nc4ccccc4[nH]3)c2)c1	236 nM
Cc1ccc(C(=O)Nc2ccc(Nc3ccnc4cc(-c5ccccn5)ccc34)cc2O)cc1	111 nM
CCCCCc1ccc(NC(=O)Nc2ccc(Cn3ncc(N4CCCNCC4)c(Cl)c3=O)cc2)cc1	1140 nM

SMILES	XC50
N#Cc1ccc2c(c1)CCN(CCCn1c(-c3ccc4ccccc4c3)nc3ccncc31)CC2	198 nM
CCN(CCCN1CCCCC1)c1cc(C)nc(Nc2ccc(OC)cc2)n1	621 nM
CCCCCCCC1CCN(C[C@H](O)c2ccnc3ccc(OC)cc23)CC1	956 nM
CC(C)(C)c1nn(-c2ccc(Cl)cc2)c2[nH]c(=O)c(CNCc3ccc4c(c3)OCO4)cc12	810 nM
O=C(NCCCCN1CCC(c2ccc3c(c2OCc2ccncc2)CCCC3)CC1)c1ccc(NC(=O)c2ccc(Cl)cc2)cc1	218 nM
CN1CCN(c2nc(NCCc3ccc(O)cc3)nc(NCc3ccccc3-c3ccc(C(F)(F)F)cc3)n2)CC1	971 nM
Oc1ccc2ccccc2c1C=NNc1nc(=Nc2ccccc2)nc(N2CCOCC2)[nH]1	885 nM
Cc1cccc2nc(-c3cccc(-c4ccc(NC(=O)Cc5ccccn5)cc4)c3)[nH]c12	793 nM
COc1ccc(NC(=O)Nc2ccc(-c3ccccc3)cc2)cc1Cn1nc(Cl)c(N2CCCNCC2)cc1=O	364 nM
O=C(CSc1nccn1Cc1ccco1)Nc1cc(C(F)(F)F)ccc1Cl	822 nM
N#Cc1ccc(CN2CCCN(Cc3cccc(NC(=O)c4ccc(Cl)c(Cl)c4)c3)CC2)cc1	850 nM
Nc1ccc2[nH]cc(C3CCN(CCC4CCN(C(=O)/C=C/c5ccc(Cl)c(Cl)c5)CC4)CC3)c2n1	737 nM
O=C(NCc1ccc(F)cc1)Nc1ccc(-c2cccc(-c3nc4cc(F)ccc4[nH]3)c2)cc1	1120 nM
O=S(=O)(NCCN1CCCC1)c1ccc(-c2ccc(CNCc3ccsc3)cc2)cc1F	810 nM
Cc1cc(N[C@@H](Cc2ccccc2)C(=O)NC2CCCC2)nc(Nc2ccccc2)n1	828 nM
Cc1cccc2nc(-c3ccc(-c4ccc(CN5CCN(CCO)CC5)cc4)cc3)[nH]c12	599 nM
CCOC(=O)c1cc(Cl)cc(Cl)c1OCCCON1C(=N)N=C(N)NC1(C)C	3.2 nM
O=C(NCCCCN1CCN(c2ccc3c(c2)CCC3)CC1)c1ccc(NC(=O)c2ccc(Cl)cc2)cc1	677 nM
Cc1ccc(O)c(-c2cc(C(=O)Nc3ccc(S(=O)(=O)N4CCCCCC4)cc3)[nH]n2)c1	711 nM
Cc1ccc(Cl)cc1N1CCN(CCCNC(=O)C2CCN(c3nc4ccccc4[nH]3)CC2)CC1	895 nM
CCc1ccc(S(=O)(=O)Nc2cccc(CCN3CCC(N4CCCCC4)CC3)c2)cc1	898 nM
c1cc(-c2ccc(CNCCCn3ccnc3)cc2)cc(-c2nc3ccccc3[nH]2)c1	113 nM
CN(C)CCOc1cc(O)c2c(c1)OC(C)(C)C=C2c1cccs1	290 nM
Cc1cccc2nc(-c3cccc(-c4cccc(CNCCNC(=O)c5ccnn5C)c4)c3)[nH]c12	192 nM
COc1ccc2nc(C)cc(N/N=C/C=C/c3ccccc3)c2c1	701 nM

SMILES	XC50
CC1(C)NC(N)=NC(=N)N1OCCc1ccc(N)cc1	3.2 nM
CCc1c(CCNCCCCCCNCCc2ccc(Br)cc2)ccc(OC)c1OC	232 nM
Cc1cc(OC(C)C(=O)N2CCc3ccccc32)ccc1Cl (configuration not stated)	785 nM
O=C(Nc1ccc(Cl)c(Cl)c1)Nc1ccc2c(c1)CCNCC2	532 nM
Cc1cccc2nc(-c3ccc(-c4cccc(NC(=O)NCc5cccc(F)c5)c4)cc3)[nH]c12	853 nM
COC(=O)c1cccc(NC(=O)NCCNc2ccnc(Nc3ccc(F)cc3)n2)c1	837 nM
COc1cc(-c2nc(-c3ccncc3)c(-c3ccc4c(c3)CCC4=NO)[nH]2)ccc1OCCN1CCN(C)CC1	756 nM
CC(C)Nc1cc(C(=O)N[C@@H](Cc2ccccc2)[C@H](O)CNC(C)(C)c2cccc(C(F)(F)F)c2)cc(N2CCCCS2(=O)=O)c1	79.4 nM
COc1ccc2nccc([C@@H](O)CN3CCC(NC(=O)/C=C/c4cccc(-c5ccccc5)c4)CC3)c2c1	248 nM
O=C(Nc1ccc(N2CCN(c3ncccc3C(F)(F)F)CC2)nc1)c1cccs1	1190 nM
O=C(NC1CCN(CCCc2ccccc2)CC1)c1ccc(-c2cccc(C(F)(F)F)c2)s1	894 nM
Cc1cc(N)nc2ccc(-c3cccc(CN)c3)cc12	707 nM
O=C(Nc1ccc(Cl)cc1)Nc1cccc(-c2ccc(-c3nc4cc(F)ccc4[nH]3)cc2)c1	47.5 nM
CCOC(=O)c1ccc(NC(=O)Nc2ccc(Cn3ncc(N4CCCNCC4)c(Cl)c3=O)cc2)cc1	443 nM
OC(CNc1ccnc(Nc2ccc(Cl)cc2)n1)c1cccc(C(F)(F)F)c1 (configuration not stated)	676 nM
COc1ccc2nccc([C@@H](O)CN3CCC(NCc4nc5c(C#N)cccc5[nH]4)CC3)c2c1	999 nM
COc1cc(F)c2ncc(Cl)c([C@H](O)CN3CCC(NCc4cc5c(cn4)OCCO5)CC3)c2c1	95.2 nM
CC(C)c1ccc2oc(-c3ccc(NC(=O)c4ccc([N+](=O)[O-])o4)cc3)nc2c1	340 nM
NC(=O)c1ccsc1NC(=O)CNC(c1ccccc1)c1ccc(Cl)cc1 (configuration not stated)	262 nM
O=C(Nc1ccc(CCNCCCc2ccccc2)cc1)Nc1ccc(Cl)c(Cl)c1	273 nM
Cc1cc(NC(c2ccc(Cl)cc2)c2ccc3cccnc3c2O)no1 (configuration not stated)	1090 nM
C=C[C@H]1CN(CCCCCCC)CC[C@H]1CC(=O)Nc1cnnc2ccc(OC)cc12	529 nM

— ChEMBL document CHEMBL1157539, “Thousands of chemical starting points for antimalarial lead identification” (Nature, 2010)
